Measured values published in PubChem BioAssay (NCI).
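In this assay, cells in 96-well plates receive the compound at five concentrations for 48 hours. Endpoints are linearly interpolated between the surrounding concentrations. TGI marks complete inhibition of growth.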

Legend:
Test in all cases: growth of human tumour cells (NCI), 48 h
ACHN renal = system: ACHN renal
BT-549 breast = system: BT-549 breast
EKVX NSCLC = system: EKVX NSCLC
HCT-15 colon = system: HCT-15 colon
M14 melanoma = system: M14 melanoma
MDA-MB-231 breast = system: MDA-MB-231 breast
MDA-MB-435 = system: MDA-MB-435
MOLT-4 leukemia = system: MOLT-4 leukemia
NCI-H23 lung = system: NCI-H23 lung
NCI/ADR-RES ovarian = system: NCI/ADR-RES ovarian
OVCAR-4 ovarian = system: OVCAR-4 ovarian
OVCAR-5 ovarian = system: OVCAR-5 ovarian
PC-3 prostate = system: PC-3 prostate
SF-268 CNS = system: SF-268 CNS
SK-MEL-2 melanoma = system: SK-MEL-2 melanoma
SN12C renal = system: SN12C renal
SNB-19 CNS = system: SNB-19 CNS
SR leukemia = system: SR leukemia
TK-10 renal = system: TK-10 renal
U251 CNS = system: U251 CNS

In the case of `O=C(OC1C#CCSCC#C/C=C\1)c1ccc2c(c1)C(=O)c1ccccc1C2=O` (stereo not given), the TGI (ACHN renal) is reported as > 100 µM, the TGI (BT-549 breast) is reported as 54.1 µM and the TGI (EKVX NSCLC) is reported as > 100 µM. For the same compound, the TGI (HCT-15 colon) was > 100 µM, the TGI (M14 melanoma) was > 100 µM and the TGI (MDA-MB-231 breast) was 82.4 µM. For the same compound, the TGI (MDA-MB-435) was > 100 µM, the TGI (MOLT-4 leukemia) was > 100 µM and the TGI (NCI-H23 lung) was > 100 µM. The TGI (NCI/ADR-RES ovarian) was > 100 µM, the TGI (OVCAR-4 ovarian) was > 100 µM and the TGI (OVCAR-5 ovarian) was > 100 µM. The TGI (PC-3 prostate) was > 100 µM, the TGI (SF-268 CNS) was 69.1 µM and the TGI (SK-MEL-2 melanoma) was > 100 µM. The TGI (SN12C renal) was > 100 µM, the TGI (SNB-19 CNS) was 59.7 µM and the TGI (SR leukemia) was > 100 µM. For the same compound, the TGI (TK-10 renal) was 80.6 µM and the TGI (U251 CNS) was 55.9 µM.
`CN(C)CCCn1c(-c2ccc(Br)cc2)csc1=Nc1ccccc1` showed a TGI (ACHN renal) of 37.7 µM, a TGI (BT-549 breast) of 31.6 µM and a TGI (EKVX NSCLC) of 23.8 µM. The TGI (HCT-15 colon) was 71 µM, the TGI (M14 melanoma) was 32.9 µM and the TGI (MDA-MB-231 breast) was > 100 µM. The TGI (MDA-MB-435) was 61.5 µM, the TGI (MOLT-4 leukemia) was 59.2 µM and the TGI (NCI-H23 lung) was 27.8 µM. The TGI (NCI/ADR-RES ovarian) was 35.7 µM, the TGI (OVCAR-4 ovarian) was 38 µM and the TGI (OVCAR-5 ovarian) was 36.3 µM. The TGI (PC-3 prostate) was 25.2 µM, the TGI (SF-268 CNS) was 33.6 µM and the TGI (SK-MEL-2 melanoma) was 31 µM. For the same compound, the TGI (SN12C renal) was 70.9 µM, the TGI (SNB-19 CNS) was 31.6 µM and the TGI (SR leukemia) was 46.8 µM. For the same compound, the TGI (TK-10 renal) was 31.7 µM and the TGI (U251 CNS) was > 100 µM.
